# From paper PMC10600239, “Selective MCL-1 inhibitor ABBV-467 is efficacious in tumor models but is associated with cardiac troponin increases in patients” (Communications Medicine, 2023)
# Where “and” joins values, the source holds several entries; their conditions need not be identical. Equal entries are not always repeated.
# Tested on: troponin
# Test: Troponin monitoring in phase 1 patients
# Format: in vivo, human
# Conditions: for Troponin I, Local Lab: reference range 2.3 to 20 ng/L; for Troponin T: patient, normal range 0-0.014
# Procedure: Blood samples for plasma ABBV-467 concentration analysis were collected on days 1, 2, 3, and 15–17 of cycle 1 as well as on days 1 of cycles for PK analysis. Plasma samples of ABBV-467 were quantified using a validated LC-tandem MS with a lower limit of detection of 3 ng/mL. ABBV-467 PK parameters were calculated using standard non-compartmental approaches with Phoenix, WinNonlin (Version 8.0, Certara). AE severity was graded according to the National Cancer Institute Common Terminology Criteria for Adverse Events v5.0 for up to 30 days after the last dose. Analyses of AEs will include only treatment-emergent AEs. Triplicate ECGs were performed on days 1, 2, 15, and 16 of cycle 1. […] An echocardiogram was performed at screening and day 1 of cycle 2 and cycle 6. […]
# Creatine Phosphokinase and Troponin Enzymes
# Blood samples will be collected on the days specified in Section 2 for analysis of creatine phosphokinase and troponin serum concentrations. Clinical significance of these enzymes will be evaluated within the […]
# context of the study. Samples should also be obtained as clinically indicated in the opinion of the investigator.
# Table 9. Creatine Phosphokinase and Troponin Sampling Times […]
# 4, 8, 24, and 48 hours post-EOI
# 4, 8, 24 and 48 hours post-EOI
# Sample times are relative to ABBV-467 infusion. […]
# [1] = of the 4 patients with elevations
structure (smiles),measurement,setting,value
Cc1c(Cl)c2c(Cl)c(C)c1-c1c(-c3ccc(F)cc3)sc3ncnc(c13)O[C@@H](C(=O)O)Cc1cc(ccc1OCc1ccnc(-c3ccc(OC[C@H]4COCCO4)cc3)n1)OC[C@@H](CN1CCN(C)CC1)O2 [ABBV-467],"Troponin I, Central Laboratory","Patient 1, C1D1, study day 1, reference range ≤ 0.04 ng/mL, Advia Centaur TnI-Ultra Assay",<0.03 ng/mL
same,"Troponin I, Central Laboratory","Patient 1, C1D2, study day 2, reference range ≤ 0.04 ng/mL",<0.03 ng/mL
same,"Troponin I, Central Laboratory","Patient 1, C1D15, study day 15, reference range ≤ 0.04 ng/mL",<0.03 ng/mL
same,"Troponin I, Central Laboratory","Patient 1, C1D16, study day 16, reference range ≤ 0.04 ng/mL",<0.03 ng/mL
same,"Troponin I, Central Laboratory","Patient 1, C1D17, study day 17, reference range ≤ 0.04 ng/mL",<0.03 ng/mL
same,"Troponin I, Central Lab","Patient 2, C1D1, study day 1, reference range ≤0.04 ng/mL",<0.03 ng/mL
same,"Troponin I, Central Lab","Patient 2, C1D2, study day 2, reference range ≤0.04 ng/mL",<0.03 ng/mL
same,"Troponin I, Central Lab","Patient 2, C1D3, study day 3, reference range ≤0.04 ng/mL",<0.03 ng/mL
same,"Troponin I, Central Lab","Patient 2, C1D8, study day 8, reference range ≤0.04 ng/mL",<0.03 ng/mL
same,"Troponin I, Central Lab","Patient 2, C1D16, study day 16, 4 hr postdose, reference range ≤0.04 ng/mL",0.24 (4 hr postdose) ng/ml
same,"Troponin I, Central Lab","Patient 2, C1D16, study day 16, 8 hr postdose, reference range ≤0.04 ng/mL",<0.03 (8 hr postdose) ng/ml
same,"Troponin I, Central Lab","Patient 2, C1D17, study day 17, reference range ≤0.04 ng/mL",0.15 ng/mL
same,"Troponin I, Central Lab","Patient 2, C1D18, study day 18, reference range ≤0.04 ng/mL",0.08 ng/mL
same,"Troponin I, Local Lab","Patient 3, C1D1, study day 1, Beckman Coulter ACCESS high sensitivity Troponin I assay",8.1 ng/L
same,"Troponin I, Central Lab","Patient 3, C1D1, study day 1, reference range ≤ 0.04 ng/mL",<0.03 ng/mL
same,"Troponin I, Local Lab","Patient 3, C1D2, study day 2",7.3 ng/L
same,"Troponin I, Central Lab","Patient 3, C1D2, study day 2, reference range ≤ 0.04 ng/mL",<0.03 ng/mL
same,"Troponin I, Local Lab","Patient 3, C1D3, study day 3",10.2 ng/L
same,"Troponin I, Central Lab","Patient 3, C1D3, study day 3, reference range ≤ 0.04 ng/mL",<0.03 ng/mL
same,"Troponin I, Local Lab","Patient 3, C1D4, study day 4",7.4 ng/L
same,"Troponin I, Local Lab","Patient 3, C1D5, study day 5",7.3 ng/L
same,"Troponin I, Local Lab","Patient 3, C1D9, study day 9",7.8 ng/L
same,"Troponin I, Local Lab","Patient 3, C1D11, study day 11",37.7 ng/L
same,"Troponin I, Local Lab","Patient 3, C1D12, study day 12",27.2 ng/L
same,"Troponin I, Central Lab","Patient 3, C1D12, study day 12, reference range ≤ 0.04 ng/mL",0.05 ng/mL
same,"Troponin I, Local Lab","Patient 3, C1D15 (No infusion; drug discontinued), study day 15",16.5 ng/L
same,"Troponin I, Central Lab","Patient 4, C1D1, study day 1, 4hr postdose, reference range ≤ 0.04 ng/mL",<0.03 (4hr postdose) ng/ml
same,"Troponin I, Central Lab","Patient 4, C1D1, study day 1, 8hr postdose, reference range ≤ 0.04 ng/mL",<0.03 (8hr postdose) ng/ml
same,"Troponin I, Central Lab","Patient 4, C1D1, study day 1, predose, reference range ≤ 0.04 ng/mL",<0.03 (predose) ng/ml
same,"Troponin I, Central Lab","Patient 4, C1D2, study day 2, reference range ≤ 0.04 ng/mL",<0.03 ng/mL
same,"Troponin I, Central Lab","Patient 4, C1D3, study day 3, reference range ≤ 0.04 ng/mL",<0.03 ng/mL
same,"Troponin I, Central Lab","Patient 4, C1D15, study day 15, 4 hr postdose, reference range ≤ 0.04 ng/mL",0.06 (4 hr postdose) ng/ml
same,"Troponin I, Central Lab","Patient 4, C1D15, study day 15, 8 hr postdose, reference range ≤ 0.04 ng/mL",0.04 ( 8 hr postdose) ng/ml
same,"Troponin I, Central Lab","Patient 4, C1D15, study day 15, predose, reference range ≤ 0.04 ng/mL",0.04 (predose) ng/ml
same,"Troponin I, Central Lab","Patient 4, C1D16, study day 16, reference range ≤ 0.04 ng/mL",0.04 ng/mL
same,"Troponin I, Central Lab","Patient 4, C1D17, study day 17, reference range ≤ 0.04 ng/mL",0.05 ng/mL
same,"Troponin I, Central Lab","Patient 4, C2D1, study day 29, postdose, reference range ≤ 0.04 ng/mL",<0.03 (postdose) ng/ml
same,"Troponin I, Central Laboratory","Patient 5, C1D1 4hr Post EOI, study day 1, reference range ≤0.04 ng/mL",<0.03 ng/mL
same,"Troponin I, Central Laboratory","Patient 5, C1D1 8hr post EOI, study day 1, reference range ≤0.04 ng/mL",<0.03 ng/mL
same,"Troponin I, Central Laboratory","Patient 5, C1D1 Predose, study day 1, reference range ≤0.04 ng/mL",<0.03 ng/mL
same,"Troponin I, Central Laboratory","Patient 5, C1D2 24h post EOI, study day 2, reference range ≤0.04 ng/mL",<0.03 ng/mL
same,"Troponin I, Central Laboratory","Patient 5, C1D3 48hr Post EOI, study day 3, reference range ≤0.04 ng/mL",<0.03 ng/mL
same,"Troponin I, Central Laboratory","Patient 5, C1D15 4hr Post EOI, study day 15, reference range ≤0.04 ng/mL",<0.03 ng/mL
same,"Troponin I, Central Laboratory","Patient 5, C1D15 8h post EOI, study day 15, reference range ≤0.04 ng/mL",<0.03 ng/mL
same,"Troponin I, Central Laboratory","Patient 5, C1D15 Predose, study day 15, reference range ≤0.04 ng/mL",<0.03 ng/mL
same,"Troponin I, Central Laboratory","Patient 5, C1D16 24h post EOI, study day 16, reference range ≤0.04 ng/mL",<0.03 ng/mL
same,"Troponin I, Central Laboratory","Patient 5, C1D17 48hr Post EOI, study day 17, reference range ≤0.04 ng/mL",<0.03 ng/mL
same,"Troponin I, Central Laboratory","Patient 6, C1D1 4hr Post EOI, study day 1, reference range ≤0.04 ng/mL",<0.03 ng/mL
same,"Troponin I, Central Laboratory","Patient 6, C1D1 8hr post EOI, study day 1, reference range ≤0.04 ng/mL",<0.03 ng/mL
same,"Troponin I, Central Laboratory","Patient 6, C1D1 Predose, study day 1, reference range ≤0.04 ng/mL",<0.03 ng/mL
same,"Troponin I, Central Laboratory","Patient 6, C1D2 24h post EOI, study day 2, reference range ≤0.04 ng/mL",<0.03 ng/mL
same,"Troponin I, Central Laboratory","Patient 6, C1D3 48hr Post EOI, study day 3, reference range ≤0.04 ng/mL",<0.03 ng/mL
same,"Troponin I, Central Laboratory","Patient 6, C1D15 4hr Post EOI, study day 15, reference range ≤0.04 ng/mL",<0.03 ng/mL
same,"Troponin I, Central Laboratory","Patient 6, C1D15 8h post EOI, study day 15, reference range ≤0.04 ng/mL",<0.03 ng/mL
same,"Troponin I, Central Laboratory","Patient 6, C1D15 Predose, study day 15, reference range ≤0.04 ng/mL",<0.03 ng/mL
same,"Troponin I, Central Laboratory","Patient 6, C1D16 24h post EOI, study day 16, reference range ≤0.04 ng/mL",<0.03 ng/mL
same,"Troponin I, Central Laboratory","Patient 6, C1D17 48hr Post EOI, study day 17, reference range ≤0.04 ng/mL",<0.03 ng/mL
same,"Troponin I, Central Laboratory","Patient 7, C1D1 4hr Post EOI, study day 1, reference range ≤0.04 ng/mL",<0.03 ng/mL
same,"Troponin I, Central Laboratory","Patient 7, C1D1 8hr post EOI, study day 1, reference range ≤0.04 ng/mL",<0.03 ng/mL
same,"Troponin I, Central Laboratory","Patient 7, C1D1 Predose, study day 1, reference range ≤0.04 ng/mL",<0.03 ng/mL
same,"Troponin I, Central Laboratory","Patient 7, C1D2 24h post EOI, study day 2, reference range ≤0.04 ng/mL",<0.03 ng/mL
same,"Troponin I, Central Laboratory","Patient 7, C1D3 48hr Post EOI, study day 3, reference range ≤0.04 ng/mL",<0.03 ng/mL
same,"Troponin I, Central Laboratory","Patient 7, C1D15 4hr Post EOI, study day 15, reference range ≤0.04 ng/mL",<0.03 ng/mL
same,"Troponin I, Central Laboratory","Patient 7, C1D15 8h post EOI, study day 15, reference range ≤0.04 ng/mL",<0.03 ng/mL
same,"Troponin I, Central Laboratory","Patient 7, C1D15 Predose, study day 15, reference range ≤0.04 ng/mL",<0.03 ng/mL
same,"Troponin I, Central Laboratory","Patient 7, C1D16 24h post EOI, study day 16, reference range ≤0.04 ng/mL",<0.03 ng/mL
same,"Troponin I, Central Laboratory","Patient 7, C1D17 48hr Post EOI, study day 17, reference range ≤0.04 ng/mL",<0.03 ng/mL
same,"Troponin I, Central Laboratory","Patient 8, C1D1 4hr Post EOI, study day 1, reference range ≤0.04 ng/mL",<0.03 ng/mL
same,"Troponin I, Central Laboratory","Patient 8, C1D1 8hr post EOI, study day 1, reference range ≤0.04 ng/mL",<0.03 ng/mL
same,"Troponin I, Central Laboratory","Patient 8, C1D1 Predose, study day 1, reference range ≤0.04 ng/mL",<0.03 ng/mL
same,"Troponin I, Central Laboratory","Patient 8, C1D2 24h post EOI, study day 2, reference range ≤0.04 ng/mL",<0.03 ng/mL
same,"Troponin I, Central Laboratory","Patient 8, C1D3 48hr Post EOI, study day 3, reference range ≤0.04 ng/mL",<0.03 ng/mL
same,"Troponin I, Central Laboratory","Patient 8, C1D15 4hr Post EOI, study day 15, reference range ≤0.04 ng/mL",<0.03 ng/mL
same,"Troponin I, Central Laboratory","Patient 8, C1D15 8h post EOI, study day 15, reference range ≤0.04 ng/mL",<0.03 ng/mL
same,"Troponin I, Central Laboratory","Patient 8, C1D15 Predose, study day 15, reference range ≤0.04 ng/mL",<0.03 ng/mL
same,"Troponin I, Central Laboratory","Patient 8, C1D16 24h post EOI, study day 16, reference range ≤0.04 ng/mL",<0.03 ng/mL
same,"Troponin I, Central Laboratory","Patient 8, C1D17 48hr Post EOI, study day 17, reference range ≤0.04 ng/mL",0.03 ng/mL
same,relation of grade ≥1 elevated troponin to peak plasma concentration and AUC,across the studied dose range,unrelated
same,patients with troponin elevations,"all doses, N = 8",4 (50%) patients (%)
same,patients with troponin elevations,dose 0.32 mg/kg,1 (12.5%) patients (%)
same,first blood draw post-infusion at which troponin elevations were detectable,"human, in vivo",4 h
same,patients with grade 1 troponin elevation,[1],3 (75%) patients (%)
same,patients with grade 3 troponin elevation,[1],1 (25%) patients (%)
same,Troponin T,LBDY 1,0.011 µg/L
same,Troponin T,LBDY 9,0.021 µg/L
same,Troponin T,LBDY 11,0.038 µg/L
same,Troponin T,LBDY 12,0.032 µg/L
same,Troponin T,LBDY 15,0.018 µg/L and 0.019 µg/L
same,Troponin T,LBDY 16,0.021 µg/L
same,Troponin T,LBDY 17,0.024 µg/L
same,Troponin T,LBDY 18,0.027 µg/L
same,Troponin T,LBDY 19,0.025 µg/L
same,Troponin T,LBDY 22,0.015 µg/L
same,Troponin T,LBDY 23,0.019 µg/L
same,Troponin T,LBDY 25,0.024 µg/L
same,Troponin T,LBDY 26,0.019 µg/L
same,Troponin T,LBDY 30 (Note: 29),0.021 µg/L
same,Troponin T,LBDY 36 (Note: missing),0.018 µg/L
same,Troponin T,LBDY 61 (Note: missing),0.016 µg/L
same,"troponin I, grade 3 elevation, multiple of upper limit of normal",single patient,1.9 × upper limit of normal
